# Laboratory results from ChEMBL document CHEMBL3228010, “Potential antitumor agents. 29. Quantitative structure-activity relationships for the antileukemic bisquaternary ammonium heterocycles” (J Med Chem, 1979).
# Several values for one entry are separate records, joined by “and”; a condition that tells them apart may be missing. Equal values may be shown once.
# Experiments:
# [1] = species: Bos taurus; assay: Displacement of ethidium from calf thymus DNA by fluorimetric method
# [2] = Displacement of ethidium from poly[d(G-C)]-poly[d(G-C)] DNA (unknown origin) by fluorimetric method
# [3] = Displacement of ethidium from poly[d(A-T)]-poly[d(A-T)] DNA by fluorimetric method
# [4] = test system: L1210; assay: Antitumor activity against mouse L1210 cells […] in ip dosed C3H X DBA2 F1 hybrid mouse on day 0 and dosed at LD10 level once daily on days 1 to 5 assessed as increase in life span relative to control; assay type: functional
# [5] = test system: L1210; assay: Antitumor activity against mouse L1210 cells […] in ip dosed C3H X DBA2 F1 hybrid mouse on day 0 and dosed once daily on days 1 to 5 assessed as increase in life span relative to control; assay type: functional
# [6] = test system: Mus musculus; assay: Toxicity in ip dosed C3H X DBA2 F1 hybrid mouse […] with mouse L1210 cells on day 0 and dosed once daily on days 1 to 5 measured after 50 days; assay type: organism-based; settings: in vivo, 1200 h
# [7] = Lipophilic-hydrophilic balance, Rm of the compound by partition chromatography; assay type: physicochemical
Compound,C50 [1],C50 [2],C50 [3],log(ILSmax) [4],D40 [5] [mg/kg],LD10 [6] [mg/kg],Rm [7]
C[n+]1cccc2ccc(NC(=O)c3ccc(NC(=O)c4ccc(C(=O)Nc5ccc6ccc[n+](C)c6c5)cc4)cc3)cc21.Cc1ccc(S(=O)(=O)[O-])cc1.Cc1ccc(S(=O)(=O)[O-])cc1,0.16 µM,0.25 µM,0.16 µM,1.85,15,34,-0.76
C[n+]1ccc(Nc2ccc(NC(=O)c3ccc(Nc4cc[n+](C)c5ccc(Cl)cc45)cc3)cc2)cc1.Cc1ccc(S(=O)(=O)[O-])cc1.Cc1ccc(S(=O)(=O)[O-])cc1,0.79 µM,1.76 µM,0.24 µM,1.81,14,40,0.57
Cc1cc(C(=O)Nc2ccc(C(=O)Nc3ccc[n+](C)c3)cc2)c(C)cc1C(=O)Nc1ccc(C(=O)Nc2ccc[n+](C)c2)cc1.Cc1ccc(S(=O)(=O)[O-])cc1.Cc1ccc(S(=O)(=O)[O-])cc1,7.8 µM,14 µM,8.1 µM,1.43,–,1.7,0.48
Cc1c[n+](C)c2ccccc2c1Nc1ccc(C(=O)Nc2ccc(Nc3cc[n+](C)cc3)cc2)cc1.[Br-].[Br-],4.9 µM,15 µM,4.5 µM,<1.4,–,5,0.6
CCCCC[n+]1cccc(NC(=O)c2ccc(NC(=O)c3ccc(C(=O)Nc4ccc(C(=O)Nc5ccc[n+](CCCCC)c5)cc4)cc3)cc2)c1.Cc1ccc(S(=O)(=O)[O-])cc1.Cc1ccc(S(=O)(=O)[O-])cc1,0.38 µM,0.92 µM,0.42 µM,<1.4,–,70,0.9
C[n+]1ccc(Nc2ccc(NC(=O)Nc3ccc(Nc4cc[n+](C)c5ccc(N)cc45)cc3)cc2)cc1.Cc1ccc(S(=O)(=O)[O-])cc1.Cc1ccc(S(=O)(=O)[O-])cc1,0.51 µM,1.2 µM,0.28 µM,1.74,3,6,0.17
C[n+]1ccc(Nc2ccc(C(=O)Nc3ccc(Nc4cc[n+](C)c5ccccc45)cc3)cc2)cc1.Cc1ccc(S(=O)(=O)[O-])cc1.Cc1ccc(S(=O)(=O)[O-])cc1,1.6 µM,3 µM,0.21 µM,2.29,2.2,7.5,0.27
C[n+]1ccc(Nc2ccc(C(=O)Nc3ccc(Nc4cc[n+](C)c5cc(N)ccc45)cc3)cc2)cc1.Cc1ccc(S(=O)(=O)[O-])cc1.Cc1ccc(S(=O)(=O)[O-])cc1,0.43 µM,1.04 µM,0.12 µM,2.34,1.5,25,-0.04
C[n+]1ccc(Nc2ccc(NC(=O)CCCCCCC(=O)Nc3ccc(Nc4cc[n+](C)cc4)cc3)cc2)cc1.[Br-].[Br-],40 µM,75 µM,20 µM,<1.4,–,30,0.59
C[n+]1ccc(Nc2ccc(NC(=O)CCCCCC(=O)Nc3ccc(Nc4cc[n+](C)cc4)cc3)cc2)cc1.[Br-].[Br-],42 µM,77 µM,22 µM,<1.4,–,30,0.49
C[n+]1ccc(Nc2ccc(NC(=O)c3ccc(C(=O)Nc4ccc(C(=O)Nc5ccc[n+](C)c5)cc4)cc3)cc2)cc1,0.63 µM and 0.84 µM,0.97 µM and 1.35 µM,0.34 µM and 0.44 µM,–,–,–,–
C/C(=C(/C)c1ccc(Nc2cc[n+](C)c3ccc(N)cc23)cc1)c1ccc(Nc2cc[n+](C)cc2)cc1.[Cl-].[Cl-],1.7 µM,2.6 µM,0.9 µM,1.53,–,5.5,0.96
C[n+]1ccc(Nc2ccc(C(=O)Nc3ccc(Nc4cc[n+](C)c5ccccc45)cc3N)cc2)cc1.[Br-].[Br-],1.87 µM,2.05 µM,0.64 µM,<1.4,–,7,0.35
CCC[n+]1ccccc1-c1ccc(NC(=O)c2ccc(C(=O)Nc3ccc(-c4cccc[n+]4CCC)cc3)cc2)cc1.Cc1ccc(S(=O)(=O)[O-])cc1.Cc1ccc(S(=O)(=O)[O-])cc1,2.2 µM,2.9 µM,0.83 µM,<1.4,–,11,0.4
C[n+]1ccc(Nc2ccc(NC(=O)c3ccc(Nc4nc[n+](C)c5ccc(N)cc45)cc3)cc2)cc1.Cc1ccc(S(=O)(=O)[O-])cc1.Cc1ccc(S(=O)(=O)[O-])cc1,0.88 µM,1.7 µM,0.5 µM,<1.4,–,3,0.13
Cc1cc(Nc2ccc(NC(=O)c3ccc(C(=O)Nc4ccc(C(=O)Nc5ccc[n+](C)c5)cc4)cc3)cc2)nc(N)[n+]1C.[I-].[I-],0.4 µM,0.49 µM,0.26 µM,<1.4,–,20,-0.6
C[n+]1cccc(NC(=O)c2ccc(NC(=O)c3ccc(C(=O)Nc4ccc(C(=O)Nc5ccc[n+](C)c5)c(Cl)c4)cc3)cc2Cl)c1.Cc1ccc(S(=O)(=O)[O-])cc1.Cc1ccc(S(=O)(=O)[O-])cc1,1.4 µM,2.1 µM,0.99 µM,<1.4,–,26,0.2
Cn1cc(NC(=O)c2cc(NC(=O)c3cc(NC=O)cn3C)cn2C)cc1C(=O)NCCC(=N)N,0.68 µM,2.4 µM,0.07 µM,–,–,–,–
CC[n+]1cccc(NC(=O)c2ccc(NC(=O)C34CCC(C(=O)Nc5ccc(C(=O)Nc6ccc[n+](CC)c6)cc5)(CC3)CC4)cc2)c1.Cc1ccc(S(=O)(=O)[O-])cc1.Cc1ccc(S(=O)(=O)[O-])cc1,–,–,–,1.65,18,27,0.59
CC[n+]1ccc(Nc2ccc(NC(=O)c3ccc(Nc4cc[n+](CC)c5ccc(N)cc45)cc3)cc2N)cc1.[I-].[I-],–,–,–,2.1,1.5,6.5,0.15
CC[n+]1cccc(-c2ccc(NC(=O)c3ccc(C(=O)Nc4ccc(-c5ccc(-c6ccc(-c7ccc[n+](CC)c7)cc6)cc5)cc4)cc3)cc2)c1.Cc1ccc(S(=O)(=O)[O-])cc1.Cc1ccc(S(=O)(=O)[O-])cc1,–,–,–,2.2,5.6,43,-0.44
CCC[n+]1cccc2cc(NC(=O)/C=C/c3ccc(C(=O)Nc4ccc5c(ccc[n+]5CCC)c4)cc3)ccc21.Cc1ccc(S(=O)(=O)[O-])cc1.Cc1ccc(S(=O)(=O)[O-])cc1,–,–,–,2,4.3,20,0.5
CCC[n+]1ccc(Nc2ccc(NC(=O)/C=C/c3ccc(/C=C/C(=O)Nc4ccc(Nc5cc[n+](CCC)cc5)cc4)cc3)cc2)cc1.[Br-].[Br-],–,–,–,1.85,13,25,0.46
C[n+]1cc(-c2ccc(NC(=O)c3ccc(C(=O)Nc4ccc(-c5c[n+](C)c(N)nc5N)cc4)cc3)cc2)c(N)nc1N.Cc1ccc(S(=O)(=O)[O-])cc1.Cc1ccc(S(=O)(=O)[O-])cc1,–,–,–,2.22,1.5,12,-0.42
CCC[n+]1cc(-c2ccc(NC(=O)c3ccc(C(=O)Nc4ccc(-c5c[n+](CCC)c(N)nc5N)cc4)cc3)cc2)c(N)nc1N.Cc1ccc(S(=O)(=O)[O-])cc1.Cc1ccc(S(=O)(=O)[O-])cc1,–,–,–,2.15,7,50,-0.08
CCC[n+]1cccc(NC(=O)c2ccc(NC(=O)c3ccc(C(=O)Nc4ccc5c(ccc[n+]5CCC)c4)cc3)cc2)c1.Cc1ccc(S(=O)(=O)[O-])cc1.Cc1ccc(S(=O)(=O)[O-])cc1,–,–,–,2.17,10.2,20,0.44
CCCC[n+]1cccc(NC(=O)c2ccc(NC(=O)/C=C/c3ccc(C(=O)Nc4ccc(C(=O)Nc5ccc[n+](CCCC)c5)cc4)cc3)cc2)c1.Cc1ccc(S(=O)(=O)[O-])cc1.Cc1ccc(S(=O)(=O)[O-])cc1,–,–,–,1.72,14,24,0.4
CC[n+]1cccc(NC(=O)c2ccc(NC(=O)c3ccc(C(=O)Nc4ccc(C(=O)Nc5ccc[n+](CC)c5)c(N)c4)c(N)c3)cc2N)c1.Cc1ccc(S(=O)(=O)[O-])cc1.Cc1ccc(S(=O)(=O)[O-])cc1,–,–,–,2.29,2.6,14,-0.9
CC[n+]1cccc(NC(=O)c2ccc(NC(=O)/C=C/c3ccc(C(=O)Nc4ccc(C(=O)Nc5ccc[n+](CC)c5)cc4)cc3)cc2)c1.Cc1ccc(S(=O)(=O)[O-])cc1.Cc1ccc(S(=O)(=O)[O-])cc1,–,–,–,1.88,22,55,-0.58
CCCC[n+]1ccc(Nc2ccc(NC(=O)c3ccc(Nc4cc[n+](CCCC)c5ccccc45)cc3)cc2)cc1.[Br-].[Br-],2.1 µM,2.8 µM,0.19 µM,<1.4,–,11,1.14
